According to PMC2045123 (Analytical and Bioanalytical Chemistry, 2007):
Entries after “also recorded” stand apart in the source; their conditions may differ. Like-named read-outs stand apart in the source and are kept apart here.

Experiments:
AR = details: cited from earlier work
human androgen receptor [1] = target: T1, human androgen receptor (Homo sapiens, UniProt P10275); assay: new yeast androgen bioassay expressing yEGFP in response to androgens; assay type: cell-based
T1 sequence (P10275 1-920): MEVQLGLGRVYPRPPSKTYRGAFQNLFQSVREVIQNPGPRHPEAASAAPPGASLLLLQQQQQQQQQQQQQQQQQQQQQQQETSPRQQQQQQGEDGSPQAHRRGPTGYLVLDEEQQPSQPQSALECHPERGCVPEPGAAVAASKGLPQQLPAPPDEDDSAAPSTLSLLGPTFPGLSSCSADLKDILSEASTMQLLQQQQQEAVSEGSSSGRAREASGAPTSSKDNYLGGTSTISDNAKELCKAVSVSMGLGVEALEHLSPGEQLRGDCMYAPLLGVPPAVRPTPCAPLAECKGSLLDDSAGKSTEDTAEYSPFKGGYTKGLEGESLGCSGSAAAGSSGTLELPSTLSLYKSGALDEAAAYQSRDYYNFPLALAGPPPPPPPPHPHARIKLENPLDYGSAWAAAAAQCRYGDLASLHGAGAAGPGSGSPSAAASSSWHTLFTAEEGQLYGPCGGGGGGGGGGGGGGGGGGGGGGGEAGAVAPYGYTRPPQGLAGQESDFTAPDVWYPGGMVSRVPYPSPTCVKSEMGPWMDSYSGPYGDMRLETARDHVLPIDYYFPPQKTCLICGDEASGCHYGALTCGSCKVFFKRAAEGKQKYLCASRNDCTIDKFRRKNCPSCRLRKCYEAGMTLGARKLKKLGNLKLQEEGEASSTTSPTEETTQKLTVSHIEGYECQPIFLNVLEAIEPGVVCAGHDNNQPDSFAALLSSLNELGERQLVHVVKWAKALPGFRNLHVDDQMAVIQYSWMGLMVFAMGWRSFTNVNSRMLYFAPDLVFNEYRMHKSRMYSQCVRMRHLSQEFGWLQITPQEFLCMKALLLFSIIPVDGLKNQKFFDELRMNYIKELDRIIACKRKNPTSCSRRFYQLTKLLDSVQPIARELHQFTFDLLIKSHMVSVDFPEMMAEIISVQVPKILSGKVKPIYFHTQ

hAR = target: T2, hAR (Homo sapiens, UniProt P10275); assay: lacZ-based; assay type: cell-based
T2 sequence (P10275 1-920): T1 sequence (P10275 1-920)

human androgen receptor [2] = target: T1, human androgen receptor; assay type: cell-based; details: coexposure with 50 nM 5α-dihydrotestosterone; potency compared with flutamide
[3] = β-galactosidase bioassay, relative to 17β-testosterone, NR no response

| SMILES | androgenic activity in MCRG systems (positive systems out of all) (AR) | RAP (hAR; [3]) | further results |
| --- | --- | --- | --- |
| CC(=O)[C@H]1CC[C@H]2[C@@H]3CCC4=CC(=O)CC[C@]4(C)[C@H]3CC[C@]12C [Progesterone] | seven out of nine | – | – |
| C[C@]12CC[C@@H]3c4ccc(O)cc4CC[C@H]3[C@@H]1CCC2=O [Estrone] | – | – | agonistic response (in words) (human androgen receptor [1]): no agonistic response; also recorded: negative result |
| C[C@]12CC[C@@H]3c4ccc(O)cc4CC[C@H]3[C@@H]1CC[C@@H]2O [17β-Estradiol] | ten out of 11 | – | – |
| C[C@]1(O)CC[C@H]2[C@@H]3CCC4=CC(=O)CCC4=C3C=C[C@@]21C [Methyltrienolone] | – | – | RAP (hAR): 3.1 |
| C[C@]12CC[C@H]3[C@@H](CCC4=CC(=O)C=C[C@@]43C)[C@@H]1CC[C@@H]2O [17β-Boldenone] | – | 0.2 | – |
| Brc1ccc(Oc2cc(Br)cc(Br)c2)cc1 [BDE-39] | – | – | agonistic response (in words) (human androgen receptor [1]): None of these four compounds were able to show an agonistic response; antiandrogenic activity (in words) (human androgen receptor [2]): clearly less antiandrogenic |
| C[C@@H]1C[C@H]2[C@@H]3CCC4=CC(=O)C=C[C@]4(C)[C@@]3(F)[C@@H](O)C[C@]2(C)[C@@]1(O)C(=O)CO [Dexamethasone] | three out of four | – | – |
| C[C@]12C=CC3=C4CCC(=O)C=C4CC[C@H]3[C@@H]1CC[C@@H]2O [17β-Trenbolone] | – | 0.9 | EC50 (hAR): 13 nM |
| CC[C@]1(O)CC[C@H]2[C@@H]3CCC4=CC(=O)CCC4=C3C=C[C@@]21CC [Tetrahydrogestrinone] | – | 1.0 | – |
